Tests used:
skin flushing or rash = conditions: larger doses of niacin
Excerpt: Typically, the form of niacin used may produce a flushing, redness or rash to the skin when consumed in large doses. […] Inositol is molecularly bonded to niacin, and in conjunction therewith serves to slow the absorption of nicotinic acid.

[1] = clinical trials: absorbability of chelated potassium; type: in vivo, human; conditions: potassium bonded or chelated with an amino acid or a simple sugar
Excerpt: A preferred aspect of the present invention is the administering of potassium when bonded or chelated with an amino acid or a simple sugar.

SMILES | side-effects (flushing, redness or rash to the skin) at larger doses (skin flushing or rash) | absorbability and assimilation into the bloodstream [1]
O=C(O[C@H]1[C@H](OC(=O)c2cccnc2)[C@@H](OC(=O)c2cccnc2)[C@H](OC(=O)c2cccnc2)[C@@H](OC(=O)c2cccnc2)[C@H]1OC(=O)c1cccnc1)c1cccnc1 [niacin inositol hexanicotinate] | no side-effects | 
O=C([O-])[C@H](O)[C@@H](O)[C@H](O)[C@H](O)CO.[K+] [potassium gluconate] |  | better absorbability and assimilation into the bloodstream

Reference: US20020136711A1, “Compositions used in human treatment” (priority 1998, published 2002)
